Measured values published in ChEMBL document CHEMBL1136945, “Antimalarial activity of thiosemicarbazones and purine derived nitriles” (Bioorg Med Chem Lett, 2009).

How the values were obtained:
Format in all cases: functional, organism-based
[1] = tested on: Plasmodium falciparum; experiment: Antimalarial activity as reduced parasitaemia after 72 hrs against chloroquine-sensitive Plasmodium falciparum 3D7 infected human O+ erythrocytes by DNA stain without pepstatin; conditions: 3D7, 72 h
[2] = tested on: Plasmodium falciparum; experiment: (§1) Antimalarial activity as reduced parasitaemia after 72 hrs against chloroquine-resistant Plasmodium falciparum K1 infected human O+ erythrocytes by DNA stain without pepstatin; conditions: K1, 72 h
[3] = tested on: Plasmodium falciparum; experiment: as §1; conditions: K1, 72 h; remark: listed apart in the source
[4] = tested on: Plasmodium falciparum; experiment: Antimalarial activity as reduced parasitaemia after 72 hrs against chloroquine-sensitive Plasmodium falciparum 3D7 infected human O+ erythrocytes by DNA stain with pepstatin; conditions: 3D7, 72 h

| Compound | EC50 [1] | EC50 [2] | EC50 [3] | EC50 [4] |
| --- | --- | --- | --- | --- |
| NC(=S)N/N=C(/CCc1ccccc1)c1cccc(Cl)c1 | > 30 µM | > 30 µM | > 30 µM |  |
| NC(=S)N/N=C(/C=C/c1ccccc1)c1cccc(C(F)(F)F)c1 | 30 µM | 30 µM | 30 µM | 30 µM |
| NC(=S)N/N=C(/CCc1ccccc1)c1ccccc1 | > 30 µM | > 30 µM | > 30 µM |  |
| NC(=S)N/N=C(/CCc1ccccc1)c1cc(C(F)(F)F)cc(C(F)(F)F)c1 | 30 µM | 30 µM | 30 µM | 30 µM |
| CCC(C)CNc1nc(C#N)nc2c1NCN2C1CCCC1 (stereo not given) | > 30 µM | > 30 µM | > 30 µM | > 30 µM |
| NC(=S)N/N=C(/c1ccccc1)c1cc(Cl)cc(Cl)c1 | > 30 µM | > 30 µM | > 30 µM |  |
| CC(Nc1nc(C#N)nc2c1NCN2Cc1ccccc1)c1ccccc1 (stereo not given) | > 30 µM | > 30 µM | > 30 µM | 30 µM |
| CCCCCCNc1nc(C#N)nc2c1NCN2CC1CCCCC1 | > 30 µM | > 30 µM | > 30 µM | > 30 µM |
| CCCCCCNc1nc(C#N)nc2c1NCN2C1CCCC1 | > 30 µM | > 30 µM | > 30 µM | > 30 µM |
| CCCCCCNc1nc(C#N)nc2c1NCN2Cc1ccccc1 | > 30 µM | > 30 µM | > 30 µM | > 30 µM |
| CC(Nc1nc(C#N)nc2c1NCN2C1CCCC1)c1ccccc1 (stereo not given) | > 30 µM | 30 µM | 30 µM | > 30 µM |
| N#Cc1nc(NCc2ccc(Cl)cc2)c2c(n1)N(C1CCCC1)CN2 | > 30 µM | > 30 µM | 30 µM | 30 µM |
| CCCCN1CNc2c(NCc3cccc(C)c3)nc(C#N)nc21 | > 30 µM | > 30 µM | > 30 µM | > 30 µM |
| N#Cc1nc(NCc2ccccc2)c2c(n1)N(Cc1ccccc1)CN2 | > 30 µM | > 30 µM | > 30 µM | > 30 µM |
| CCCCN1CNc2c(NCc3ccccc3)nc(C#N)nc21 | > 30 µM | > 30 µM | > 30 µM | > 30 µM |
| CCCCN1CNc2c(NCc3ccc(C)cc3)nc(C#N)nc21 | > 30 µM | > 30 µM | > 30 µM | > 30 µM |
| CCCCN1CNc2c(NCc3ccc(OC)cc3)nc(C#N)nc21 | > 30 µM | > 30 µM | > 30 µM | > 30 µM |
| Cc1ccc(CNc2nc(C#N)nc3c2NCN3CCCO)cc1 | > 30 µM | > 30 µM | > 30 µM | > 30 µM |
| CCCCN1CNc2c(NCc3ccc(F)cc3)nc(C#N)nc21 | > 30 µM | > 30 µM | > 30 µM | > 30 µM |
| N#Cc1nc(NCc2ccc(Cl)cc2)c2c(n1)N(CC1CCCCC1)CN2 | > 30 µM | > 30 µM | > 30 µM | > 30 µM |
| N#Cc1nc(NCc2ccccc2)c2c(n1)N(C1CCCCO1)CN2 (stereo not given) | > 30 µM | > 30 µM | > 30 µM | > 30 µM |

| Compound | EC50 [1] | EC50 [2] | EC50 [3] | EC50 [4] |
| --- | --- | --- | --- | --- |
| CC(O)CN1CNc2c(NCc3ccc(Cl)c(Cl)c3)nc(C#N)nc21 (stereo not given) | > 30 µM | > 30 µM | > 30 µM | 30 µM |
| N#Cc1nc(NCc2ccc(Cl)c(Cl)c2)c2c(n1)N(CC(O)CO)CN2 (stereo not given) | > 30 µM | > 30 µM | > 30 µM | > 30 µM |
| CCCCN1CNc2c(NCCc3ccccc3)nc(C#N)nc21 | > 30 µM | > 30 µM | > 30 µM | > 30 µM |
| N#Cc1nc(NCc2ccc(F)cc2)c2c(n1)N(CCCCO)CN2 | > 30 µM | > 30 µM | > 30 µM | > 30 µM |
| N#Cc1nc(NCc2ccc(F)cc2)c2c(n1)N(Cc1ccccc1)CN2 | > 30 µM | > 30 µM | > 30 µM | > 30 µM |
| N#Cc1nc(NCCc2ccccc2)c2c(n1)N(Cc1ccccc1)CN2 | > 30 µM | > 30 µM | > 30 µM | > 30 µM |
| N#Cc1nc(NCc2ccc(Cl)c(Cl)c2)c2c(n1)N(Cc1ccccc1)CN2 | > 30 µM | > 30 µM | 30 µM | 30 µM |
| N#Cc1nc(NCCc2ccccc2)c2c(n1)N(c1cccnc1)CN2 | > 30 µM | > 30 µM | > 30 µM | > 30 µM |
| COc1ccc(CN2CNc3c(NCc4ccccc4)nc(C#N)nc32)cc1 | > 30 µM | > 30 µM | > 30 µM | > 30 µM |
| N#Cc1nc(NCc2ccc(Cl)cc2)c2c(n1)N(CCCCO)CN2 | > 30 µM | > 30 µM | > 30 µM | > 30 µM |
| COCCCN1CNc2c(NCc3ccc(Cl)c(Cl)c3)nc(C#N)nc21 | > 30 µM | > 30 µM | > 30 µM | 30 µM |
| COc1ccc(CN2CNc3c(NCc4ccc(Cl)cc4)nc(C#N)nc32)cc1 | > 30 µM | > 30 µM | > 30 µM | 30 µM |
| N#Cc1nc(NCc2ccc(Cl)cc2)c2c(n1)N(Cc1cccc(C(F)(F)F)c1)CN2 | > 30 µM | > 30 µM | 30 µM | 30 µM |
| COC(CCN1CNc2c(NCc3ccc(Cl)c(Cl)c3)nc(C#N)nc21)OC | > 30 µM | > 30 µM | > 30 µM | 30 µM |
| N#Cc1nc(NCc2ccc(Cl)c(Cl)c2)c2c(n1)N(CCCC(=O)O)CN2 | > 30 µM | > 30 µM | > 30 µM | > 30 µM |
| N#Cc1nc(NCc2cccc(-c3cc(Cl)cc(Cl)c3)c2)c2ncn(CCCO)c2n1 | > 30 µM | > 30 µM | > 30 µM | > 30 µM |
| N#Cc1nc(NCc2cccc(-c3ccc(Cl)c(Cl)c3)c2)c2ncn(CCCO)c2n1 | > 30 µM | > 30 µM | > 30 µM | > 30 µM |
| N#Cc1nc(NCc2ccc(Br)cc2)c2c(n1)N(CCCc1ccccc1)CN2 | > 30 µM | > 30 µM | > 30 µM | > 30 µM |
| CCCCN1CNc2c(NCc3ccc(Cl)c(Cl)c3)nc(C#N)nc21 | > 30 µM | > 30 µM | > 30 µM | 30 µM |
| N#Cc1nc(NCc2cccc(Cc3cccc(Cl)c3)c2)c2ncn(CCCO)c2n1 | > 30 µM | > 30 µM | > 30 µM | > 30 µM |
| CN(C)c1cccc(-c2cccc(CNc3nc(C#N)nc4c3ncn4CCCO)c2)c1 | > 30 µM | > 30 µM | > 30 µM | > 30 µM |

| Compound | EC50 [1] | EC50 [2] | EC50 [3] | EC50 [4] |
| --- | --- | --- | --- | --- |
| CC(C)Oc1ccccc1-c1cccc(CNc2nc(C#N)nc3c2ncn3CCCO)c1 | 30 µM | 30 µM | 30 µM | 30 µM |
| CCC(C)CNc1nc(C#N)nc2c1NCN2Cc1ccccc1 (stereo not given) | > 30 µM | > 30 µM | > 30 µM | 30 µM |
| Cc1cccc(CNc2nc(C#N)nc3c2NCN3C2CCCC2)c1 | > 30 µM | > 30 µM | > 30 µM | > 30 µM |
| CCCCN1CNc2c(NCc3ccc(Br)cc3)nc(C#N)nc21 | > 30 µM | 30 µM | > 30 µM | 30 µM |
| CCCCN1CNc2c(NCc3ccc(Cl)cc3)nc(C#N)nc21 | > 30 µM | 30 µM | > 30 µM | 30 µM |
| CCCCN1CNc2c(NC(C)c3ccccc3)nc(C#N)nc21 (stereo not given) | > 30 µM | 30 µM | 30 µM | 30 µM |
| N#Cc1nc(NCc2ccc(-c3ccsc3)cc2)c2ncn(CCCO)c2n1 | 30 µM | 30 µM | 30 µM | 30 µM |
| Cc1ccc(/C(=N/NC(N)=S)c2cc(C(F)(F)F)cc(C(F)(F)F)c2)cc1 | 30 µM | 30 µM | 30 µM | 30 µM |
| Cc1ccccc1-c1cccc(CNc2nc(C#N)nc3c2ncn3CCCO)c1 | 30 µM | 30 µM | 30 µM | 30 µM |
| COc1ccc(CNc2nc(C#N)nc3c2NCN3Cc2ccccc2)cc1 | > 30 µM | > 30 µM | > 30 µM | > 30 µM |
| Cc1ccc(CNc2nc(C#N)nc3c2NCN3Cc2ccccc2)cc1 | > 30 µM | > 30 µM | > 30 µM | > 30 µM |
| N#Cc1nc(NCc2ccc(Cl)c(Cl)c2)c2c(n1)N(CCCO)CN2 | > 30 µM | > 30 µM | > 30 µM | > 30 µM |
| N#Cc1nc(NCc2ccc(-c3cccs3)cc2)c2ncn(CCCO)c2n1 | 30 µM | 30 µM | 30 µM | 30 µM |
| COCC(CN1CNc2c(NCc3ccc(Cl)c(Cl)c3)nc(C#N)nc21)OC (stereo not given) | > 30 µM | > 30 µM | > 30 µM | 30 µM |
| N#Cc1nc(NCc2ccccc2)c2c(n1)N(CCCO)CN2 | > 30 µM | > 30 µM | > 30 µM | > 30 µM |
| N#Cc1nc(NCc2ccc(Br)cc2)c2c(n1)N(Cc1ccccc1)CN2 | > 30 µM | 30 µM | 30 µM | 30 µM |
| N#Cc1nc(NCc2ccccc2)c2c(n1)N(Cc1cccc(C(F)(F)F)c1)CN2 | 30 µM | 30 µM | 30 µM | 30 µM |
| COc1ccc(CNc2nc(C#N)nc3c2NCN3C2CCCC2)cc1 | > 30 µM | > 30 µM | > 30 µM | > 30 µM |
| N#Cc1nc(NCc2ccc(Cl)cc2)c2c(n1)N(Cc1ccccc1)CN2 | > 30 µM | > 30 µM | 30 µM | 30 µM |
| CC(=O)Nc1ccc(CNc2nc(C#N)nc3c2ncn3CCCO)cc1 | 30 µM | 30 µM | 30 µM | 30 µM |
